Reference: patent US10428051B2 (priority 2015, dated 2019)
pKi: −log10 of the molar value. Read-outs that look alike come from different tables or passages of the source.

Target: human σ1 receptor (Homo sapiens, UniProt Q99720)
Test: biochemical
Format: binding
Parameters: μ and σ1 dual (binding to the σ1 receptor and the μ-opioid receptor expressed as Ki): key to the marks not given beside the values

Chain of human σ1 receptor (Q99720 whole entry): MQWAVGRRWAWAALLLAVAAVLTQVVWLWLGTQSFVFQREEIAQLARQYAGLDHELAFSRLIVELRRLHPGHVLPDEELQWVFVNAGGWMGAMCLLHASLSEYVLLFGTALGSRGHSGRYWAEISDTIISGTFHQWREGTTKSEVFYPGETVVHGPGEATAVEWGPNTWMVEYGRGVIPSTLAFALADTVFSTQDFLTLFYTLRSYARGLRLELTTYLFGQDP

Structure (SMILES)	pKi	also measured
CCC(=O)N(CC1(N2CCN(Cc3ccccc3)CC2)CCOC(C)(C)C1)c1ncccc1C(F)(F)F (centres unmarked) [Example 67, N-((4-(4-benzylpiperazin-1-yl)-2,2-dimethyltetrahydro-2H-pyran-4-yl)methyl)-N-(3-(trifluoromethyl)pyridin-2-yl)propionamide]	> 6.30	–
CCC(=O)N(CC1(N2CCN(Cc3cncc(F)c3)CC2)CC1)c1ccccc1 [Example 122, N-((1-(4-((5-fluoropyridin-3-yl)methyl)piperazin-1-yl)cyclopropyl)methyl)-N-phenylpropionamide]	> 6.30	–
CCC(=O)N(CC1(N2CCN(CCOC(C)C)CC2)CCOCC1)c1ncccc1F [Example 157, N-(3-fluoropyridin-2-yl)-N-((4-(4-(2-isopropoxyethyl)piperazin-1-yl)tetrahydro-2H-pyran-4-yl)methyl)propionamide]	> 6.30	–
CCC(=O)N(CC1(N2CCN(C(C(=O)OC)c3ccccc3)CC2)CCOCC1)c1ccccn1 (centres unmarked) [Example 180, methyl 2-phenyl-2-(4-(4-((N-(pyridin-2-yl)propionamido)methyl)tetrahydro-2H-pyran-4-yl)piperazin-1-yl)acetate]	< 6.30	–
CCC(=O)N(CC1(N2CCN(Cc3ccc(F)cn3)CC2)CC1)c1ccccc1 [Example 121, N-((1-(4-((5-fluoropyridin-2-yl)methyl)piperazin-1-yl)cyclopropyl)methyl)-N-phenylpropionamide]	< 6.30	–
CCC(=O)N(CC1(N2CCN(CCOC(C)C)CC2)CCOC(C)(C)C1)c1cccc(C(F)(F)F)n1 (centres unmarked) [Example 161, N-((4-(4-(2-isopropoxyethyl)piperazin-1-yl)-2,2-dimethyltetrahydro-2H-pyran-4-yl)methyl)-N-(6-(trifluoromethyl)pyridin-2-yl)propionamide]	> 6.30	–
CCC(=O)N(CC1(N2CCN(C(C)c3ccccc3)CC2)CCOCC1)c1ccccn1 (centres unmarked) [Example 134, N-((4-(4-(1-phenylethyl)piperazin-1-yl)tetrahydro-2H-pyran-4-yl)methyl)-N-(pyridin-2-yl)propionamide]	–	μ and σ1 dual (binding to the σ1 receptor and the μ-opioid receptor expressed as Ki): ++
CCC(=O)N(CC1(N2CCN(Cc3ccccc3)CC2)CCOCC1)c1cc(C(F)(F)F)ccn1 [Example 8, N-((4-(4-benzylpiperazin-1-yl)tetrahydro-2H-pyran-4-yl)methyl)-N-(4-(trifluoromethyl)pyridin-2-yl)propionamide]	> 6.30	–
CCC(=O)N(CC1(N2CCN(C(C)c3ccc(F)cc3)CC2)CCOCC1)c1cccc(C(F)(F)F)n1 (centres unmarked) [Example 182, N-((4-(4-(1-(4-fluorophenyl)ethyl)piperazin-1-yl)tetrahydro-2H-pyran-4-yl)methyl)-N-(6-(trifluoromethyl)pyridin-2-yl)propionamide]	> 6.30	–
CCC(=O)N(CC(C)(C)N1CCN(CCc2ncccc2F)CC1)c1ccccc1F [Example 71, N-(2-fluorophenyl)-N-(2-(4-(2-(3-fluoropyridin-2-yl)ethyl)piperazin-1-yl)-2-methylpropyl)propionamide]	–	μ and σ1 dual (binding to the σ1 receptor and the μ-opioid receptor expressed as Ki): ++
CCC(=O)N(CC1(N2CCN(Cc3ccc(F)cc3)CC2)CCOCC1)c1ccccn1 [Example 111, N-((4-(4-(4-fluorobenzyl)piperazin-1-yl)tetrahydro-2H-pyran-4-yl)methyl)-N-(pyridin-2-yl)propionamide]	> 6.30	–
CCC(=O)N(CC1(N2CCN(CCN3CCOCC3)CC2)CCOCC1)c1cccc(C(F)(F)F)n1 [Example 184, N-((4-(4-(2-morpholinoethyl)piperazin-1-yl)tetrahydro-2H-pyran-4-yl)methyl)-N-(6-(trifluoromethyl)pyridin-2-yl)propionamide]	< 6.30	–
CCC(=O)N(CC1(N2CCN(Cc3ccccc3)CC2)CCC1)c1cccc(C(F)(F)F)n1 [Example 197, N-((1-(4-benzylpiperazin-1-yl)cyclobutyl)methyl)-N-(6-(trifluoromethyl)pyridin-2-yl)propionamide]	> 7.00	–
CC(C)(CN(C(=O)c1ccco1)c1ccccc1)N1CCN(CCc2ccccc2)CC1 [Example 44, N-(2-methyl-2-(4-phenethylpiperazin-1-yl)propyl)-N-phenylfuran-2-carboxamide]	> 7.00	–
CN1CCC(CN(C(=O)c2nccs2)c2ccccc2)(N2CCN(Cc3ccccc3)CC2)CC1 [Example 41, N-((4-(4-benzylpiperazin-1-yl)-1-methylpiperidin-4-yl)methyl)-N-phenylthiazole-2-carboxamide]	–	pKi (combined class for both Ki-σ1 (assay A1) and Ki-μ (assay A2), human receptors, radioligand binding, read-out: μ and σ1 dual (binding to the σ1 receptor and the μ-opioid receptor expressed as Ki)): < 6.30
CCC(=O)N(CC1(N2CCN(CCC(C)C)CC2)CCOC(C)(C)C1)c1cccc(C(F)(F)F)n1 (centres unmarked) [Example 159, N-((4-(4-isopentylpiperazin-1-yl)-2,2-dimethyltetrahydro-2H-pyran-4-yl)methyl)-N-(6-(trifluoromethyl)pyridin-2-yl)propionamide]	> 7.00	–
CCC(=O)N(CC1(N2CCN(Cc3ccccc3)CC2)CCOCC1)c1ccc(F)cc1 [Example 81, N-((4-(4-benzylpiperazin-1-yl)tetrahydro-2H-pyran-4-yl)methyl)-N-(4-fluorophenyl)propionamide]	> 6.30	–
CCC(=O)N(CC1(N2CCN(Cc3ccc(NC(C)=O)cc3)CC2)CC1)c1ccccc1 [Example 115, N-((1-(4-(4-acetamidobenzyl)piperazin-1-yl)cyclopropyl)methyl)-N-phenylpropionamide]	–	μ and σ1 dual (binding to the σ1 receptor and the μ-opioid receptor expressed as Ki): ++

Structure (SMILES)	pKi	also measured
CCOCCN1CCN(C2(CN(C(=O)CC)c3cccc(C(F)(F)F)n3)CCSCC2)CC1 [Example 205, N-((4-(4-(2-ethoxyethyl)piperazin-1-yl)tetrahydro-2H-thiopyran-4-yl)methyl)-N-(6-(trifluoromethyl)pyridin-2-yl)propionamide]	> 6.30	–
CCC(=O)N(CC1(N2CCN(Cc3ccccc3)CC2)CC1)c1cccc(C#N)c1 [Example 96, N-((1-(4-benzylpiperazin-1-yl)cyclopropyl)methyl)-N-(3-cyanophenyl)propionamide]	> 6.30	–
CCC(=O)N(CC1(N2CCN(Cc3ncccc3F)CC2)CC1)c1ccccc1 [Example 120, N-((1-(4-((3-fluoropyridin-2-yl)methyl)piperazin-1-yl)cyclopropyl)methyl)-N-phenylpropionamide]	< 6.30	–
CCC(=O)N(CC1(N2CCN(Cc3ccccc3)CC2)CCOCC1)c1ccccc1Cl [Example 2, N-((4-(4-benzylpiperazin-1-yl)tetrahydro-2H-pyran-4-yl)methyl)-N-(2-chlorophenyl)propionamide]	> 7.00	–
CCC(=O)N(CC1(N2CCN(Cc3ccccc3)CC2)CCOC(C)(C)C1)c1ncccc1C#N (centres unmarked) [Example 68, N-((4-(4-benzylpiperazin-1-yl)-2,2-dimethyltetrahydro-2H-pyran-4-yl)methyl)-N-(3-cyanopyridin-2-yl)propionamide]	–	μ and σ1 dual (binding to the σ1 receptor and the μ-opioid receptor expressed as Ki): ++
CCC(=O)N(CC1(N2CCN(CCC(C)C)CC2)CC1)c1cccc(C(F)(F)F)n1 [Example 124, N-((1-(4-isopentylpiperazin-1-yl)cyclopropyl)methyl)-N-(6-(trifluoromethyl)pyridin-2-yl)propionamide]	> 7.00	–
CCC(=O)N(CC1(N2CCN(Cc3ccccn3)CC2)CC1)c1ccccc1 [Example 114, N-phenyl-N-((1-(4-(pyridin-2-ylmethyl)piperazin-1-yl)cyclopropyl)methyl)propionamide]	> 6.30	–
CCC(=O)N(CC1(N2CCN(Cc3ccccc3)CC2)CC1)c1cncc(F)c1 [Example 93, N-((1-(4-benzylpiperazin-1-yl)cyclopropyl)methyl)-N-(5-fluoropyridin-3-yl)propionamide]	> 6.30	–
CCC(=O)N(CC1(N2CCN(Cc3ccncc3)CC2)CCOCC1)c1ccccc1 [Example 106, N-phenyl-N-((4-(4-(pyridin-4-ylmethyl)piperazin-1-yl)tetrahydro-2H-pyran-4-yl)methyl)propionamide]	–	μ and σ1 dual (binding to the σ1 receptor and the μ-opioid receptor expressed as Ki): ++
CCC(=O)N(CC1(N2CCN(CCOC(C)C)CC2)CCOC(C)(C)C1)c1ccccn1 (centres unmarked) [Example 163, N-((4-(4-(2-isopropoxyethyl)piperazin-1-yl)-2,2-dimethyltetrahydro-2H-pyran-4-yl)methyl)-N-(pyridin-2-yl)propionamide]	< 6.30	–
CCC(=O)N(CC1(N2CCN(CCO)CC2)CCOCC1)c1cccc(C(F)(F)F)n1 [Example 148, N-((4-(4-(2-hydroxyethyl)piperazin-1-yl)tetrahydro-2H-pyran-4-yl)methyl)-N-(6-(trifluoromethyl)pyridin-2-yl)propionamide]	< 6.30	–
CCC(=O)N(CC1(N2CCN(CCC(C)C)CC2)CCOCC1)c1ccccn1 [Example 153, N-((4-(4-isopentylpiperazin-1-yl)tetrahydro-2H-pyran-4-yl)methyl)-N-(pyridin-2-yl)propionamide]	–	μ and σ1 dual (binding to the σ1 receptor and the μ-opioid receptor expressed as Ki): ++
CCC(=O)N(CC1(N2CCN(Cc3ccccc3)CC2)CCOCC1)c1cncc(F)c1 [Example 10, N-((4-(4-benzylpiperazin-1-yl)tetrahydro-2H-pyran-4-yl)methyl)-N-(5-fluoropyridin-3-yl)propionamide]	> 6.30	–
CCC(=O)N(CC1(N2CCN(CCOC(C)C)CC2)CCOC(C)(C)C1)c1ncccc1F (centres unmarked) [Example 167, N-(3-fluoropyridin-2-yl)-N-((4-(4-(2-isopropoxyethyl)piperazin-1-yl)-2,2-dimethyltetrahydro-2H-pyran-4-yl)methyl)propionamide]	> 6.30	–
CCC(=O)N(CC1(N2CCN(Cc3ccccc3)CC2)CCOCC1)c1ccccc1OC [Example 3, N-((4-(4-benzylpiperazin-1-yl)tetrahydro-2H-pyran-4-yl)methyl)-N-(2-methoxyphenyl)propionamide]	> 7.00	–
CCC(=O)N(CC(C)(C)N1CCN(CCc2ccccc2F)CC1)c1ncccc1F [Example 69, N-(2-(4-(2-fluorophenethyl)piperazin-1-yl)-2-methylpropyl)-N-(3-fluoropyridin-2-yl)propionamide]	–	μ and σ1 dual (binding to the σ1 receptor and the μ-opioid receptor expressed as Ki): ++
CCC(=O)N(CC1(N2CCN(Cc3ccccc3)CC2)CCOCC1)c1cccc(F)c1 [Example 5, N-((4-(4-benzylpiperazin-1-yl)tetrahydro-2H-pyran-4-yl)methyl)-N-(3-fluorophenyl)propionamide]	> 7.00	–
